The record followed here is ChEMBL document CHEMBL4321794, “Discovery and Optimization of 2-Arylquinazolin-4-ones into a Potent and Selective Tankyrase Inhibitor Modulating Wnt Pathway Activity” (J Med Chem, 2019).

Data set [1] is described as follows: Time at which free-drug concentration exceeds in vitro cellular EC50 for inhibition of tankyrase 1/2 in human DLD1 cells assessed as increase in axin2 accumulation in mouse xenografted with human DLD1 at 30 mg/kg, po administered via gavage. The conditions noted are these: in vivo. In kind it is organism-based. In general terms: A xenograft is tissue or cells of one species grown in another, often human tumour cells in immunodeficient mice.

The target in data set [2] is Poly [ADP-ribose] polymerase 1 (Homo sapiens, UniProt P09874). The experiment in a line: Inhibition of recombinant human full-length Myc/His-tagged Parp-1 expressed in baculovirus infected Sf21 insect cells assessed as reduction in auto-PARsylation using activated DNA as substrate incubated for 150 mins in presence of NAD and bio-NAD as co-substrate by TR-FRET assay. (In TR-FRET formats the signal depends on donor and acceptor labels being close together.)

The nature of data set [3]: Time at which free-drug concentration exceeds in vitro cellular EC50 for inhibition of tankyrase 1/2 in human DLD1 cells assessed as increase in axin2 accumulation in mouse at 30 mg/kg, po. Particulars: in vivo. In kind it is organism-based.
A further data set has as its system Mus musculus. In words: Ex vivo inhibition of tankyrase 1/2 in human DLD1 cells xenografted in immunodeficient athymic nude mouse assessed as increase in tankyrase level in tumor lysates at 10 mg/kg, po administered via gavage measured after 12 hrs by luminex based bead assay. Format: functional, organism-based. The conditions noted are these: Neoplasm, Lysate.

A short description of data set [4]: Time at which free-drug concentration exceeds in vitro cellular EC50 for inhibition of tankyrase 1/2 in human DLD1 cells assessed as increase in axin2 accumulation in mouse xenografted with human DLD1 at 10 mg/kg, po administered via gavage. In kind it is organism-based. Particulars: in vivo.
In data set [5] the target is T1, Protein mono-ADP-ribosyltransferase PARP11 (Homo sapiens, UniProt Q9NR21).
T1 sequence (Q9NR21 whole entry): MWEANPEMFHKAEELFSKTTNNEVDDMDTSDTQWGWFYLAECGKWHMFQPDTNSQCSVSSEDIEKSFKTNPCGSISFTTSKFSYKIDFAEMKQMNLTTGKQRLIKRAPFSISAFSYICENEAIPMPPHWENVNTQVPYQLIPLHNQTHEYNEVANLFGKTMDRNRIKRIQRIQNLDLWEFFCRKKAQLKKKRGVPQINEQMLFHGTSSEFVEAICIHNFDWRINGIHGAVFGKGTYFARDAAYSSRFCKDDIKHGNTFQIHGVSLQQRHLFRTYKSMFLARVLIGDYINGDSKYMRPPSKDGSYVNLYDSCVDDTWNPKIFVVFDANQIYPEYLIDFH
In words: Inhibition of human N-terminal GST-tagged PARP11 (8 to 338 residues) expressed in baculovirus infected Sf9 insect cells using biotinylated substrate by chemiluminescence method.

The target of data set [6] is T2, Protein mono-ADP-ribosyltransferase PARP15 (Homo sapiens, UniProt Q460N3).
T2 sequence (Q460N3 whole entry): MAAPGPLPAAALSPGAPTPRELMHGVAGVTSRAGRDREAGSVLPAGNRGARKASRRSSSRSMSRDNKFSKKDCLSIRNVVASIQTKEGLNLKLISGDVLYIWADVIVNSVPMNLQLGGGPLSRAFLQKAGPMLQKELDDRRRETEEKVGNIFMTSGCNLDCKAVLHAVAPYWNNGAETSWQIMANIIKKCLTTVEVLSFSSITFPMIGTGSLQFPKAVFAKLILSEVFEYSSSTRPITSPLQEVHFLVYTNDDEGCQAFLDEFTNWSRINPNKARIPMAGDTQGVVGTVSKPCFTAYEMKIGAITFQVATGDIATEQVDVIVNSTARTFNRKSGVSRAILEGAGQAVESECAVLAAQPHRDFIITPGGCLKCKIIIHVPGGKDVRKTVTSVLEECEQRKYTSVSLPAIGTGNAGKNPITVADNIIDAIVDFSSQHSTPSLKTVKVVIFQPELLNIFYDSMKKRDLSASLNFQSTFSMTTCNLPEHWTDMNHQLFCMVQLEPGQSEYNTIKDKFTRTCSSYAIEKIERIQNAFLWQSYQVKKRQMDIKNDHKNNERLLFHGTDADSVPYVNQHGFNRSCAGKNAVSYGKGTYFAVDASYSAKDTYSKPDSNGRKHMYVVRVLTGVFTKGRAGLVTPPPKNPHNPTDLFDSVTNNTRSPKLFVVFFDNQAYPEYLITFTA
The experiment in a line: Inhibition of human N-terminal GST-tagged PARP15 (221 to 444 residues) expressed in Escherichia coli using biotinylated substrate by chemiluminescence method.

For data set [7], the target named is T3, Protein mono-ADP-ribosyltransferase PARP3 (Homo sapiens, UniProt Q9Y6F1).
T3 sequence (Q9Y6F1 whole entry): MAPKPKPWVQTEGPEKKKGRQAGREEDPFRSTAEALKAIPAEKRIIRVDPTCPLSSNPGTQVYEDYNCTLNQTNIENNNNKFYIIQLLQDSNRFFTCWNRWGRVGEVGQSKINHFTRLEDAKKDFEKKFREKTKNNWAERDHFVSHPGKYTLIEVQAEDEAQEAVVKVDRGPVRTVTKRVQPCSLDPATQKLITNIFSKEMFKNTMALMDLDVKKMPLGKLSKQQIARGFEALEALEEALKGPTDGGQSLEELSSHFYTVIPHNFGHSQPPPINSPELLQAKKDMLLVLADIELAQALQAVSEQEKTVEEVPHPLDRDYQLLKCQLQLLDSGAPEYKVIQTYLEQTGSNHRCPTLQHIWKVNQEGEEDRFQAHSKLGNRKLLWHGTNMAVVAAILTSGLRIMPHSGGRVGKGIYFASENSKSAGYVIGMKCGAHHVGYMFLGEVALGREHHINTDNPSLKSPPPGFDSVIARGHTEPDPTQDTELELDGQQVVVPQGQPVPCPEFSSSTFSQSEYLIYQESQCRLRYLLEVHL
The experiment in a line: Inhibition of N-terminal GST-tagged recombinant full length human PARP3 expressed in Baculovirus infected Sf9 cells using biotinylated substrate after 1 hr by chemiluminescence method.

Each structure is given as a SMILES string. The source made the active and inactive calls. No cut-off for these calls is given here. Where only a bound is given, the exact number is not on record here.

Poly [ADP-ribose] polymerase 1, sequence (P09874 whole entry): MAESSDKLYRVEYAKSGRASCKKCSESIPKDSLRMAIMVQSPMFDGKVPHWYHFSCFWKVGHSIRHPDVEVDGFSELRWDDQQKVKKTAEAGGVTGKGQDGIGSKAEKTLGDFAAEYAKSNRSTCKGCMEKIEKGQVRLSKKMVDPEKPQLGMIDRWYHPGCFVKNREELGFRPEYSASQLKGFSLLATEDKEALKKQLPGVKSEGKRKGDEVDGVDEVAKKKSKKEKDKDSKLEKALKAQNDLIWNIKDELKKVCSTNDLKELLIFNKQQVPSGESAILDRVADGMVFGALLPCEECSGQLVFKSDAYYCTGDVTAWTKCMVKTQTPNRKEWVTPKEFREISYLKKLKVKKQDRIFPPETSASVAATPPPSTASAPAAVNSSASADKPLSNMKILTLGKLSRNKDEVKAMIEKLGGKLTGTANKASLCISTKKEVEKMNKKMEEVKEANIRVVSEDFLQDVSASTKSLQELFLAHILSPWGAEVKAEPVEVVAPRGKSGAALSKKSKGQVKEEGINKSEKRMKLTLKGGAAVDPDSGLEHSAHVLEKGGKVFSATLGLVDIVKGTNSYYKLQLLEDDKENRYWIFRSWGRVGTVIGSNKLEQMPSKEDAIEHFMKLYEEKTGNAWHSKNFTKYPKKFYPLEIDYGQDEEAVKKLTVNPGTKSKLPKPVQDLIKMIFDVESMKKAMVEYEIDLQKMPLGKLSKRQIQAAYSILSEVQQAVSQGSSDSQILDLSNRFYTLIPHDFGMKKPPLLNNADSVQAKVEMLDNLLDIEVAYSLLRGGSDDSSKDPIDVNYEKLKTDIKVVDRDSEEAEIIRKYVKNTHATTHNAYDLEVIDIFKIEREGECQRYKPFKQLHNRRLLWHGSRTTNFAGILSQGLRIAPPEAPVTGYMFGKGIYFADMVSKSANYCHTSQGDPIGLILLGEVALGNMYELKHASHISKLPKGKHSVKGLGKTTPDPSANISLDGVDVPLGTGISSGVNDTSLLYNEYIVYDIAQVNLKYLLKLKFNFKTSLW

In general, IC50 refers to the concentration at which inhibition is half-maximal. Turning to `CC(C)(O)c1ccc(-c2nc3c(F)cc(F)cc3c(=O)[nH]2)cc1`, the “T>fEC50” value is “>= 12 hr” in data set [1], “>= 20 hr” in data set [3] and “>= 12 hr” in data set [4]. In addition, the IC50 in data set [2] was 782 nM; in data set [5], greater than 10000 nM; in data set [6], greater than 10000 nM; in data set [7], 1900 nM. In addition, the inhibition entry in the data set on Mus musculus is “Active”.
